ChEMBL document CHEMBL1201862, “PubChem BioAssay data set” (2004)
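96-well plates; 48 h exposure; 5 concentrations. Endpoints by linear interpolation between flanking doses. Not reached: highest tested concentration assigned. The concentration for 50% growth inhibition is given as GI50.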 The source made the active and inactive calls. Cut-off read from the data, not from the text of the source: active = GI50 up to about 1.1 µM and inactive = higher.

Columns and labels:
Test in all cases: growth of human tumour cells (NCI), 48 h
[1] = test system: SK-MEL-2
[2] = test system: A549
[3] = test system: SK-MEL-28
[4] = test system: SR
[5] = test system: NCI-H226
[6] = test system: 786-0
[7] = test system: SW-620
[8] = test system: HOP-62
[9] = test system: OVCAR-5
[10] = test system: COLO 205
[11] = test system: NCI-H460
[12] = test system: OVCAR-4
[13] = test system: MDA-MB-435
[14] = test system: OVCAR-3
[15] = test system: EKVX
[16] = test system: SNB-75
[17] = test system: SF-539
[18] = test system: NCI-H522
[19] = test system: KM12
[20] = test system: TK-10
[21] = test system: PC-3
[22] = test system: SN12C
[23] = test system: UACC-62
[24] = test system: MCF7
[25] = test system: SK-MEL-5
[26] = test system: U-251
[27] = test system: OVCAR-8
[28] = test system: Malme-3M
[29] = test system: SNB-19
[30] = test system: ACHN
[31] = test system: MOLT-4
[32] = test system: NCI/ADR-RES
[33] = test system: CCRF-CEM
[34] = test system: T47D
[35] = test system: MDA-MB-231
[36] = test system: HT-29
[37] = test system: RPMI-8226
[38] = test system: HCT-15
[39] = test system: UO-31
[40] = test system: A498
[41] = test system: Hs-578T
[42] = test system: M14
[43] = test system: HCT-116
[44] = test system: MDA-N
[45] = test system: HCC 2998
[46] = test system: CAKI-1
[47] = test system: SF-268
[48] = test system: SF-295
[49] = test system: DU-145
[50] = test system: NCI-H23
[51] = test system: K562
[52] = test system: HOP-92
[53] = test system: LOX IMVI
[54] = test system: SK-OV-3
[55] = test system: IGROV-1
[56] = test system: RXF 393
[57] = test system: UACC-257
[58] = test system: BT-549
[59] = test system: HL-60

SMILES: COc1cc(OC)c(/C=N/N=C(\N)NO)c(OC)c1
- GI50 [1]: > 100 µM (inactive)
- GI50 [2]: 60.8 µM (inactive)
- GI50 [3]: > 100 µM (inactive)
- GI50 [4]: 63.5 µM (inactive)
- GI50 [5]: > 100 µM (inactive)
- GI50 [6]: > 100 µM (inactive)
- GI50 [7]: > 100 µM (inactive)
- GI50 [8]: 55.8 µM (inactive)
- GI50 [9]: > 100 µM (inactive)
- GI50 [10]: > 100 µM (inactive)
- GI50 [11]: 91.4 µM (inactive)
- GI50 [12]: > 100 µM (inactive)
- GI50 [13]: 49.8 µM (inactive)
- GI50 [14]: > 100 µM (inactive)
- GI50 [15]: 35.4 µM (inactive)
- GI50 [16]: 0.0255 µM (active)
- GI50 [17]: > 100 µM (inactive)
- GI50 [18]: > 100 µM (inactive)
- GI50 [19]: 0.787 µM (active)
- GI50 [20]: > 100 µM (inactive)
- GI50 [21]: > 100 µM (inactive)
- GI50 [22]: > 100 µM (inactive)
- GI50 [23]: 25.6 µM (inactive)
- GI50 [24]: > 100 µM (inactive)
- GI50 [25]: > 100 µM (inactive)
- GI50 [26]: > 100 µM (inactive)
- GI50 [27]: > 100 µM (inactive)
- GI50 [28]: > 100 µM (inactive)
- GI50 [29]: > 100 µM (inactive)
- GI50 [30]: 15.6 µM (inactive)
- GI50 [31]: > 100 µM (inactive)
- GI50 [32]: > 100 µM (inactive)
- GI50 [33]: > 100 µM (inactive)
- GI50 [34]: > 100 µM (inactive)
- GI50 [35]: > 100 µM (inactive)
- GI50 [36]: > 100 µM (inactive)
- GI50 [37]: > 100 µM (inactive)
- GI50 [38]: 83.9 µM
- GI50 [39]: 29 µM (inactive)
- GI50 [40]: > 100 µM (inactive)
- GI50 [41]: > 100 µM (inactive)
- GI50 [42]: 95.5 µM (inactive)
- GI50 [43]: > 100 µM (inactive)
- GI50 [44]: > 100 µM (inactive)
- GI50 [45]: > 100 µM (inactive)
- GI50 [46]: > 100 µM (inactive)
- GI50 [47]: > 100 µM (inactive)
- GI50 [48]: 33 µM (inactive)
- GI50 [49]: 85.5 µM (inactive)
- GI50 [50]: > 100 µM (inactive)
- GI50 [51]: 41.6 µM (inactive)
- GI50 [52]: > 100 µM (inactive)
- GI50 [53]: > 100 µM (inactive)
- GI50 [54]: > 100 µM (inactive)
- GI50 [55]: 90.6 µM (inactive)
- GI50 [56]: > 100 µM (inactive)
- GI50 [57]: > 100 µM (inactive)

SMILES: COc1c(C2(c3ccc(F)cc3)SCCCS2)c(=O)c1=O
- GI50 [1]: > 100 µM (inactive)
- GI50 [2]: > 100 µM (inactive)
- GI50 [3]: > 100 µM (inactive)
- GI50 [5]: > 100 µM (inactive)
- GI50 [6]: > 100 µM (inactive)
- GI50 [7]: > 100 µM (inactive)
- GI50 [8]: > 100 µM (inactive)
- GI50 [9]: > 100 µM (inactive)
- GI50 [10]: > 100 µM (inactive)
- GI50 [11]: > 100 µM (inactive)
- GI50 [12]: > 100 µM (inactive)
- GI50 [13]: > 100 µM (inactive)
- GI50 [14]: > 100 µM (inactive)
- GI50 [15]: > 100 µM (inactive)
- GI50 [16]: > 100 µM (inactive)
- GI50 [17]: > 100 µM (inactive)
- GI50 [19]: > 100 µM (inactive)
- GI50 [20]: > 100 µM (inactive)
- GI50 [21]: > 100 µM (inactive)
- GI50 [22]: > 100 µM (inactive)
- GI50 [23]: > 100 µM (inactive)
- GI50 [24]: > 100 µM (inactive)
- GI50 [25]: > 100 µM (inactive)
- GI50 [26]: > 100 µM (inactive)
- GI50 [27]: > 100 µM (inactive)
- GI50 [28]: > 100 µM (inactive)
- GI50 [29]: > 100 µM (inactive)
- GI50 [30]: > 100 µM (inactive)
- GI50 [31]: > 100 µM (inactive)
- GI50 [32]: > 100 µM (inactive)
- GI50 [33]: > 100 µM (inactive)
- GI50 [35]: > 100 µM (inactive)
- GI50 [36]: > 100 µM (inactive)
- GI50 [58]: > 100 µM (inactive)
- GI50 [37]: > 100 µM (inactive)
- GI50 [38]: > 100 µM
- GI50 [39]: > 100 µM (inactive)
- GI50 [41]: > 100 µM (inactive)
- GI50 [42]: > 100 µM (inactive)
- GI50 [43]: > 100 µM (inactive)
- GI50 [44]: > 100 µM (inactive)
- GI50 [59]: 31.6 µM (inactive)
- GI50 [45]: > 100 µM (inactive)
- GI50 [46]: > 100 µM (inactive)
- GI50 [47]: > 100 µM (inactive)
- GI50 [48]: > 100 µM (inactive)
- GI50 [49]: > 100 µM (inactive)
- GI50 [50]: > 100 µM (inactive)
- GI50 [51]: > 100 µM (inactive)
- GI50 [52]: > 100 µM (inactive)
- GI50 [53]: > 100 µM (inactive)
- GI50 [54]: > 100 µM (inactive)
- GI50 [56]: > 100 µM (inactive)
- GI50 [57]: > 100 µM (inactive)

SMILES: CN(C)c1ccc(/C=C2\N=C(N/N=C/c3ccccc3O)NC2=O)cc1
- GI50 [3]: 25.1 µM (inactive)
- GI50 [5]: 20.5 µM (inactive)
- GI50 [8]: 22.5 µM (inactive)
- GI50 [9]: 49.9 µM (inactive)
- GI50 [10]: 31.3 µM (inactive)
- GI50 [13]: 32.8 µM (inactive)
- GI50 [16]: 31.2 µM (inactive)
- GI50 [20]: 25.6 µM (inactive)
- GI50 [22]: 36.7 µM (inactive)
- GI50 [29]: 41.9 µM (inactive)
- GI50 [36]: 34.3 µM (inactive)
- GI50 [58]: 44.7 µM (inactive)
- GI50 [37]: 38.6 µM (inactive)
- GI50 [40]: 25.1 µM (inactive)
- GI50 [41]: 68.9 µM (inactive)
- GI50 [44]: 39.1 µM (inactive)
- GI50 [45]: 36.9 µM (inactive)
- GI50 [47]: 34.4 µM (inactive)
- GI50 [49]: 32.3 µM (inactive)
- GI50 [52]: 24 µM (inactive)
- GI50 [56]: 23.9 µM (inactive)

SMILES: O=C1ON=C2C3CC4CC12CC1(C3)C(=O)ON=C41
- GI50 [1]: > 100 µM (inactive)
- GI50 [2]: > 100 µM (inactive)
- GI50 [3]: > 100 µM (inactive)
- GI50 [4]: > 100 µM (inactive)
- GI50 [5]: > 100 µM (inactive)
- GI50 [6]: > 100 µM (inactive)
- GI50 [7]: > 100 µM (inactive)
- GI50 [8]: > 100 µM (inactive)
- GI50 [9]: > 100 µM (inactive)
- GI50 [10]: > 100 µM (inactive)
- GI50 [11]: > 100 µM (inactive)
- GI50 [12]: > 100 µM (inactive)
- GI50 [13]: > 100 µM (inactive)
- GI50 [14]: > 100 µM (inactive)
- GI50 [15]: > 100 µM (inactive)
- GI50 [16]: > 100 µM (inactive)
- GI50 [17]: > 100 µM (inactive)
- GI50 [18]: > 100 µM (inactive)
- GI50 [19]: > 100 µM (inactive)
- GI50 [21]: > 100 µM (inactive)
- GI50 [22]: > 100 µM (inactive)
- GI50 [23]: > 100 µM (inactive)
- GI50 [24]: > 100 µM (inactive)
- GI50 [25]: > 100 µM (inactive)
- GI50 [26]: > 100 µM (inactive)
- GI50 [27]: > 100 µM (inactive)
- GI50 [28]: > 100 µM (inactive)
- GI50 [29]: > 100 µM (inactive)
- GI50 [30]: > 100 µM (inactive)
- GI50 [31]: > 100 µM (inactive)
- GI50 [32]: > 100 µM (inactive)
- GI50 [33]: > 100 µM (inactive)
- GI50 [35]: > 100 µM (inactive)
- GI50 [36]: > 100 µM (inactive)
- GI50 [58]: > 100 µM (inactive)
- GI50 [37]: > 100 µM (inactive)
- GI50 [39]: > 100 µM (inactive)
- GI50 [40]: > 100 µM (inactive)
- GI50 [42]: > 100 µM (inactive)
- GI50 [43]: > 100 µM (inactive)
- GI50 [44]: > 100 µM (inactive)
- GI50 [59]: > 100 µM (inactive)
- GI50 [45]: > 100 µM (inactive)
- GI50 [46]: > 100 µM (inactive)
- GI50 [48]: > 100 µM (inactive)
- GI50 [49]: > 100 µM (inactive)
- GI50 [50]: > 100 µM (inactive)
- GI50 [51]: > 100 µM (inactive)
- GI50 [52]: > 100 µM (inactive)
- GI50 [53]: > 100 µM (inactive)
- GI50 [55]: > 100 µM (inactive)
- GI50 [56]: > 100 µM (inactive)
- GI50 [57]: > 100 µM (inactive)
